Here are results for two molecules from patent US3954814A, “Alkadienylcyclopropanecarboxylates” (Sumitomo Chemical Company, Limited, priority 1971, dated 1976).

Holding throughout (format): in vivo
One test concerns house flies. Briefly: Campbell's turn table oil spray test on house fly adults (Experimental Example 1). To be noted: Musca domestica, 24 h, oil spray 5 ml, 10 min exposure, mortality after 1 day, read-out: LC50 (50 percent lethal concentration). In short, it runs like this:
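Compounds formulated in deodorized kerosene as oil sprays at various concentrations and sprayed (5 ml) in a Campbell's turn table. About 100 adult flies exposed to settling mist for 10 minutes starting 20 s after spraying, then moved to observation cage. LC50 from repeated runs.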

Test [1] has as its system Northern house mosquitoes. Briefly: knock-down test of oil sprays on Northern house mosquito adults in (70 cm)^3 glass chamber (Experimental Example 2). The conditions noted are these: concentration of oil spray 0.2%.
Another test deals with rice stem borer larvae. Briefly: micro dropping (topical) test on hibernating rice stem borer larvae (Experimental Example 3). To be noted: topical in acetone, head and tail of larvae, 3 days. The text has this:
The present compounds (1), (4), (8), (10), (14), (15), (22), (32), (36), (38), (41), (44), (48), (50), (51), (52), (53), (61), (66), (68), (72), (73), (80), (81), (90) and (93) and chrysanthemic acid esters corresponding thereto were individually dissolved in acetone to prepare insecticides of various concentrations. Using a micro dropping means, each of the insecticides was dropped to the head and tail of hibernating rice stem borer larvae.

Values after ≈ are worked out from the molar mass of the structure shown.

With `C=C(C)C=CC1C(C(=O)OCc2coc(Cc3ccccc3)c2)C1(C)C` (stereo not drawn) [Present compound (53), 5-Benzyl-3-furylmethyl 2',2'-dimethyl-3'-(3"-methyl-1",3"-butadienyl)-cyclopropanecarboxylate], the LC50 in the test with house flies worked out at 71 µg/mL (≈ 203 µM). Further, in test [1], the “KT50 (50 percent knock down time)” value is 124 s. Further, the “LD50 (50 percent lethal dose)” value in the test on rice stem borer larvae is reported as 0.170 γ/larva.
Taken in the same sequence, the figures for `C=CC=CC1C(C(=O)OC2CC(=O)C(CC=C)=C2C)C1(C)C` (stereo not drawn) [Present compound (81), 2-Allyl-3-methyl-2-cyclopentene-1-one-4-yl 2',2'-dimethyl-3'-(1",3"-butadienyl)-cyclopropanecarboxylate] were 590 µg/mL (≈ 1960 µM), 141 s and 1.7 γ/larva.
